Test results as given in publication PMC6386991 (International Journal of Molecular Sciences, 2019).
Read-outs that look alike come from different tables or passages of the source.

Assays:
[1] = tested on: SH-SY5Y cells; assay: Neuroprotection against rotenone/oligomycin A, co-incubation, MTT; conditions: R/O mixture
[2] = ABTS radical scavenging assay; conditions: read-out: ABTS FRS50 ± SD
[3] = target: EeAChE (Electrophorus electricus, UniProt O42275); assay: Kinetic characterization of AChE inhibition (Lineweaver–Burk plot); type: biochemical, electric eel; conditions: Km and Vmax
Experimental: To obtain the mechanism of EeAChE inhibition, kinetic experiments were performed.
Kinetic characterization of AChE and BuChE was performed using the reported method with different concentrations of the substrate (S)—acetylthiocholine iodide (in range of […]) prepared in phosphate buffer (pH 8.0). […] Then, the inhibitor (14 µL) was added into the assay solution. Kinetic characterizations of the hydrolysis of acetylthiocholine […] catalyzed by AChE were done spectrophotometrically at 412 nm. A parallel control with no inhibitor in the mixture, allowed adjusting activities to be measured at various times.

[4] = target: Aβ (1–42) (Homo sapiens, UniProt P05067); assay: Self-induced Aβ(1–42) aggregation, Thioflavin T assay; type: biochemical
From the text: Aβ(1–42) is the most amyloidogenic Aβ fragment found in the AD plaques.
Amyloid β aggregation plays a definitive role in neurodegeneration and AD progression. Thus, inhibition of the Aβ aggregation has been presented as a promising approach for the AD therapy. In order to examine the ability to inhibit Aβ aggregation spectroscopic technique which is analyse with thioflavin T have been used. We investigated the best potent inhibitor towards AChE. […] As well as the study being conducted without the presence of the inhibitor. Aβ42 was dissolved in DMSO to make 125.8 µM stock solution. Each compound (10 µL) and 10 µL of Aβ42 were added into 60 µL of phosphate buffer (PBS at pH 8.0) in a 96-well plate. After shake and incubation for 24 h at 30 °C, 20 µL of 2.5 µM ThT solution in 50 mM glycine–NaOH (pH 8.5) was added. Fluorescence excitation was measured at 446 nm with emission a wavelength of 490 nm after 5 min incubation with the dye. The reported results were obtained as the mean ± SD of triplicates of three independent experiments. […]

[5] = target: T1, equine serum BuChE (EqBuChE) (Equus caballus, UniProt P81908); assay: biochemical; conditions: read-out: BuChE IC50 ± SD
T1 construct: equine serum BuChE (EqBuChE); from tissue; host or cells: equine serum

[6] = LogP assay (HPLC, calibration curve); type: physicochemical; conditions: reversed-phase HPLC, Waters Xbridge C18 column; Experimental
Experimental: After pKa assay we decided to use TEA because of the best properties for the assay. Coefficient of determination was over 0.96 for calibration curve (Figure 3). […] LogP values calculated by ChemAxon nad ACD/Percepta software were inflated in comparison to our experimental result (Table 3).
Methanol (POCH) was used as an organic modifier. Demineralized water was purified in our faculty. Triethylamine (TEA) (Sigma Aldrich) was dissolved in concentration 30 mM in methanol and in water. Ten various isocratic mobile phases were used in calibration and assay. The first mobile phase contained 50% methanol solution with 30 mM TEA and 50% water solution with 30 mM TEA. Each next mobile phase contained 5% more methanol solution; 95% methanol solution and 5% water solution mix was used as the last mobile phase; 30 mM triethylamine in all mobile phases allowed us to analyzed basic substances. Basic solutions were used, because a neutral form of the compounds was required in logP assay. […]
The test compound was eluted by all mobile phases and obtained retention times were used to calculate logkw value. LogP value was read from calibration curve. Obtained value was compared with calculated values by online software chemicalize.com (ChemAxon 2018) and ACD/Percepta Version 14.0.0 (Advanced Chemistry Development, Inc., Metropolitan Toronto, ON, Canada).

[7] = pKa assay (UV spectra in buffers pH 5.6 to 12.4); type: physicochemical; conditions: phosphate buffers in methanol:water (1:1), pH 5.6 to 12.4, Experimental
From the text: LogP is one of properties used in Lipinski’s rule of five. Our compounds were designed as a potential drug in AD therapy. Fulfillment of Lipinski’s rule of five allows us to suppose that the compound will show adequate pharmacokinetics. […] In the chemical structure of our compound occur four nitrogen atoms with a free ion pair, which allow us to gradually ionize the whole compound at different pH value. […] Direct determination of the ratio between consecutive form of molecule allows to measure the pKa value (Figure 2). The change of distribution charge in molecule affects noticeably the change of the ultraviolet (UV) spectra. […] We used absorbance ratios and mathematical calculation allowed to estimate specific pH value for each ionized form and finally to calculate pKa values (Figure 3). The value pKa1 calculated by ChemAxon and ACD/Percepta software are close to value pKa1 obtained by our method. pKa2 value calculated by ChemAxon software and pKa2 calculated by ACD/Percepta were inflated in comparison with our experimental result pKa2 (Table 3). […]
Spectrophotometric measurement was performed in 96 wells plate by using Synergy H1 microplate reader (BioTek, Vinoosky, VT, USA) with Gen5 software (BioTek). […] Further calculations on UV spectra were performed by using mathematical ratios of absorbance 332/343 nm and 343/332 nm and according to methodology developed by Musil et al.. […]

[8] = target: AChE-BACE-1A protein pair (Homo sapiens, UniProt P22303+P56817); assay: Yeast three-hybrid (Y3H) test, AChE-BACE-1A; conditions: 10 µM hybrid ligand, DDO/X/A agar plates
[9] = tested on: SH-SY5Y cells; assay: Neuroprotection against rotenone/oligomycin A, pre-incubation, MTT; conditions: R/O mixture, compound 0.0001 µM
[10] = in vitro
[11] = DPPH free-radical scavenging assay; conditions: read-out: DPPH FRS50 ± SD
[12] = tested on: SH-SY5Y cells; assay: Neuroprotection against oxidative stress, H2O2, MTT
[13] = In vitro cytotoxicity assay (MTT) on CCL-110; conditions: human, CCL-110 cells (normal human skin fibroblasts)
Experimental: Cytotoxicity assay was performed on CCL-110 cell line (normal, human fibroblasts derived from skin). Test over a wide range of concentrations (including the concentrations close to the IC50 of enzymatic inhibition results) was performed.

[14] = Homo sapiens, SH-SY5Y, read-out: % cell viability

Chain of Aβ (1–42) (P05067 672-713 limits assumed): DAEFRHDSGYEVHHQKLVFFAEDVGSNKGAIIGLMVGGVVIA
T1 sequence (P81908 whole entry): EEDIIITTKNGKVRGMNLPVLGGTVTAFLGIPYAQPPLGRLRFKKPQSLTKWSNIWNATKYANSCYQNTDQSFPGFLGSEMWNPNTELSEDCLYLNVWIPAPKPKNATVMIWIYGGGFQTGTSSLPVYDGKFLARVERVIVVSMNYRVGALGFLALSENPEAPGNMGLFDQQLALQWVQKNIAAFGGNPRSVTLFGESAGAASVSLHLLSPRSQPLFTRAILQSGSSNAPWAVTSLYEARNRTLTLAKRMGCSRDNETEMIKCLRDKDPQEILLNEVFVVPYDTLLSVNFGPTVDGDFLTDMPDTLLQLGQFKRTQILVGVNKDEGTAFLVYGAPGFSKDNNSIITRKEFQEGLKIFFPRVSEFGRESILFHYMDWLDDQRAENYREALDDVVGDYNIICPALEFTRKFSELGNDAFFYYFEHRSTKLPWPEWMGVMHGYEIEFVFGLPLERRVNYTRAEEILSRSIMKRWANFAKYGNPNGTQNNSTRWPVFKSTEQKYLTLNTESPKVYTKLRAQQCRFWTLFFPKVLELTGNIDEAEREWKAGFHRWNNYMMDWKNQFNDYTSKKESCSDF
Chain of EeAChE (O42275 24-633): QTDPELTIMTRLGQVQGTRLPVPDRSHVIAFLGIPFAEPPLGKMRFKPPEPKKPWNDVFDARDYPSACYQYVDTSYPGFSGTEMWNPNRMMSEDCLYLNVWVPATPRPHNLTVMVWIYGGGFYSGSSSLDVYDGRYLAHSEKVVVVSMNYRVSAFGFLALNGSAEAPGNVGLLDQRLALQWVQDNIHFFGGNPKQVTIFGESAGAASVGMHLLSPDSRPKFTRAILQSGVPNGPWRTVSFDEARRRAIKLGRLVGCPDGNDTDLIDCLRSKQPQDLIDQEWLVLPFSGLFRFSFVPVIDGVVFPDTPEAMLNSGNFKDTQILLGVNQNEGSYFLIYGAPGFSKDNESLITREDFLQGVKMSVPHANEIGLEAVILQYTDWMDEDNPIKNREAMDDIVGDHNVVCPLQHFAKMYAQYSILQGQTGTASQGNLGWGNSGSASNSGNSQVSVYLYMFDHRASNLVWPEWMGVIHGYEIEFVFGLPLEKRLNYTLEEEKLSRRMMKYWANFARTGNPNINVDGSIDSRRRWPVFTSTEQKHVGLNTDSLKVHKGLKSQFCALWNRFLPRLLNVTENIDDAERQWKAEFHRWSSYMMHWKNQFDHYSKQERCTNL
Chain of AChE-BACE-1A protein pair (P22303 52-577): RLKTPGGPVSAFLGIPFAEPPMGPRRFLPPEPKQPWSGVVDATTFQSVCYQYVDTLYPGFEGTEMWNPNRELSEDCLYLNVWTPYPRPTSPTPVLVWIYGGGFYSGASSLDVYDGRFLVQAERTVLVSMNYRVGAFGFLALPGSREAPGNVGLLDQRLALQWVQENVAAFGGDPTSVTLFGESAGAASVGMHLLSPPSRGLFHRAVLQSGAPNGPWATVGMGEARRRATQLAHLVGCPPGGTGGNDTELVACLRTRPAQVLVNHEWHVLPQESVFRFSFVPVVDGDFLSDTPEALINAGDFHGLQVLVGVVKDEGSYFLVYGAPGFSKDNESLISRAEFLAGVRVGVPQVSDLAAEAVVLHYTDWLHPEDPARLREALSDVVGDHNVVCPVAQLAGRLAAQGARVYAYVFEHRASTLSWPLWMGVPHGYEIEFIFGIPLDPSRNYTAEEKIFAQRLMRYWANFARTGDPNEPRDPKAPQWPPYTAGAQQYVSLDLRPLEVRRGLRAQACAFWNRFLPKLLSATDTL
Chain of AChE-BACE-1A protein pair (P56817 46-457): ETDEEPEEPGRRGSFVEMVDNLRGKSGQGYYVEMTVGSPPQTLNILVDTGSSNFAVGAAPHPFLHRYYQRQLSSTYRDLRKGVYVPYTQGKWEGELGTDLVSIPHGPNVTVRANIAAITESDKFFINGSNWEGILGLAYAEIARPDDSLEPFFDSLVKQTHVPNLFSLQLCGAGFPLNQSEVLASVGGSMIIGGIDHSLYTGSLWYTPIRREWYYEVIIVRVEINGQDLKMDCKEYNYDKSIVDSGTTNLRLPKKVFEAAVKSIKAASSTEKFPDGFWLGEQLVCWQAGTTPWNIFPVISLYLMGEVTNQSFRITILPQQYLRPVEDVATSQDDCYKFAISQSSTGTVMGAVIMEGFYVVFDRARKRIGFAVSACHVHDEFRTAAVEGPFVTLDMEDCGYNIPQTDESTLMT

With `O=C(NCCCCCCNc1c2c(nc3ccccc13)CCC2)c1ccc(Cl)nc1` [Compound 3e] the “neuroprotective properties (in words)” value [1] was “did not have neuroprotective properties at any concentrations”, the EC50 [2] was greater than 20000 µM and the “type of EeAChE inhibition” value [3] was “mixed inhibition”. The IC50 [4] was 15 ± 0.6 µM, the inhibition at 10 µM ([4]; 10 µM compound) was 40 ± 4.8% and the inhibition at 25 µM ([4]; 25 µM compound) was 63 ± 4.2%. It also gave an inhibition at 50 µM ([4]; 50 µM compound) of 72 ± 2.9%, an inhibition at 100 µM ([4]; 100 µM compound) of 79 ± 3.2% and an IC50 [5] of 0.153 ± 0.02 µM. For the same molecule, the chromatographic logP [6] was 3.99, the pKa ([7]; read-out: pKa1) was 8.53 and the pKa ([7]; read-out: pKa2) was 11.3. For the same molecule, the “hybrid ligand-induced interaction AChE-BACE-1A” value [8] was “Blue colonies, indicating putative interaction”, the neuroprotection [9] was 3.98% and the viability at 24 h, 0.1 µM [10] was 100%. For the same molecule, the viability at 24 h, 1 µM [10] was 99.7%, the viability at 24 h, 10 µM [10] was 93% and the EC50 [11] was greater than 20000 µM. For the same molecule, the “neuroprotective activity (in words)” value ([12]; H2O2 100 µM, compound 10–0.01 µM) was “at none concentration, 3e had neuroprotective activity”, the viability at 0.01 µM [12, 14] was 60.4% and the viability at 0.1 µM [12, 14] was 29.2%. It also gave a viability at 1 µM [12, 14] of 18.4%, a viability at 10 µM [12, 14] of 14.3% and an IC50 at 48 h [13] of 0.638 µM.
